Data on 30 compounds can be found in US20190292179A1 (BRISTOL-MYERS SQUIBB COMPANY, priority 2016, published 2019).

Assay [1] has as its target HIS-TGFβR2 WT (Homo sapiens, UniProt P37173). As to the kind of experiment: HTRF probe-displacement assay with HIS-TGFβR2 WT. Particulars: 1 nM HIS-TGFβR2 WT, labeled probe at Kd, 1 hour at room temperature. It is filed as binding. On the procedure: The reaction is incubated for 1 hour at room temperature and the HTRF signal was measured on an Envision plate reader (Ex: 340 nm; Em: 520 nm/495 nm). Inhibition data were calculated by comparison to no enzyme control reactions for 100% inhibition and vehicle-only reactions for 0% inhibition. The final concentration of reagents in the assay are 1 nM HIS-TGFβR1 T204D or HIS-TGFβR2 WT, 0.2 nM anti-HIS detection antibody, labeled small molecule probe (at Kd) and 0.5% DMSO. Dose response curves were generated to determine the concentration required inhibiting 50% of kinase activity (IC50). Compounds were dissolved at 10 mM in dimethylsulfoxide (DMSO) and evaluated at eleven concentrations. IC50 values were derived by non-linear regression analysis.

For assay [2], the target named is T1, HIS-TGFβR1 T204D (Homo sapiens, UniProt P36897, T204D).
T1 sequence (P36897 34-503 T204D): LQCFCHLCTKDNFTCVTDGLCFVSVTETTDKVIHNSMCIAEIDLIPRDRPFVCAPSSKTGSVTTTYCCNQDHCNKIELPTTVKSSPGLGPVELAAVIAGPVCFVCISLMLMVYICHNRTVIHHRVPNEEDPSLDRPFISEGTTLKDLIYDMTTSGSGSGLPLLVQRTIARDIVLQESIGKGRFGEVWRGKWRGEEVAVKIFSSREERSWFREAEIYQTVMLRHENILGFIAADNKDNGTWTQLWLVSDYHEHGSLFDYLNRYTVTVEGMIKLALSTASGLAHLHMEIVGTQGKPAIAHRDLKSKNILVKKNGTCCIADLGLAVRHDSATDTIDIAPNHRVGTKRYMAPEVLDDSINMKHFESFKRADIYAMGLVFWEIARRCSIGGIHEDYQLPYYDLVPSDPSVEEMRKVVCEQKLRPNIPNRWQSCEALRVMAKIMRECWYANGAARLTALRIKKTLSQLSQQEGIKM
In words: HTRF probe-displacement assay with HIS-TGFβR1 T204D. It is filed as binding. Particulars: 1 nM HIS-TGFβR1 T204D, labeled probe at Kd, 1 hour at room temperature. The method, boiled down: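 Binding read as HTRF probe displacement with 1 nM HIS-tagged kinase, 0.2 nM anti-HIS antibody, labelled probe at Kd and 0.5% DMSO, 1 h at room temperature (Ex 340, Em 520/495 nm). Eleven-point dose response normalised to no-enzyme and vehicle controls; IC50 from non-linear regression.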

Structures can show the parent of a compound that is named as a salt.

HIS-TGFβR2 WT, sequence (P37173 23-567): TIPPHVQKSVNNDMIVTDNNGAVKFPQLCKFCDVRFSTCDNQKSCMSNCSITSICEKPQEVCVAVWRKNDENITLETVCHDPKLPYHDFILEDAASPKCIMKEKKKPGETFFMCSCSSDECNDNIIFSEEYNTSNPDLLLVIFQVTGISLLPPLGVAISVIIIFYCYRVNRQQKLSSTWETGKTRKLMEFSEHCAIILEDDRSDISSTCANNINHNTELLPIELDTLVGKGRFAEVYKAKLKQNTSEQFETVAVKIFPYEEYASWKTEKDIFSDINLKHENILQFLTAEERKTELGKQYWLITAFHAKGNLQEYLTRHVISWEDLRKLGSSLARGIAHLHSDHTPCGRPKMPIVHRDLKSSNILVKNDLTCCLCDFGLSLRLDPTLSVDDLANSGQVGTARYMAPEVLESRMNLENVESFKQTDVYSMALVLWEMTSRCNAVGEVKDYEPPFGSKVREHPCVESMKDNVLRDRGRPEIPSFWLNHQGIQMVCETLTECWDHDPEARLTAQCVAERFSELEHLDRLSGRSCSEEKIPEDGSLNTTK

For the compound `CCOC(=O)c1cnc2ccc(-c3c[nH]nc3-c3ccc(F)cc3)cn12` [Example 57, ethyl 6-(3-(4-fluorophenyl)-1H-pyrazol-4-yl)imidazo[1,2-a]pyridine-3-carboxylate], the IC50 in assay [1] amounted to 3.71 µM; in assay [2], 0.003 µM.

Turning to `Fc1ccc(-c2n[nH]cc2-c2ccn3ncnc3c2)cc1` [Example 29, 7-(3-(4-fluorophenyl)-1H-pyrazol-4-yl)-[1,2,4]triazolo[1,5-a]pyridine], the IC50 in assay [1] turned out to be 1.1 µM; in assay [2], 0.003 µM.

Consider `CC(=O)Nc1cc(-c2c[nH]nc2-c2ccc(F)cc2)cn2ccnc12` [Example 33, N-(6-(3-(4-fluorophenyl)-1H-pyrazol-4-yl)imidazo[1,2-a]pyridin-8-yl)acetamide], for which the IC50 in assay [1] turned out to be 7.06 µM; in assay [2], 0.811 µM.

Take `Fc1ccc(-c2n[nH]cc2-c2ccc3nccn3c2)cc1` [Example 34, 6-(3-(4-fluorophenyl)-1H-pyrazol-4-yl)imidazo[1,2-a]pyridine]: the IC50 in assay [1] was 5.02 µM; in assay [2], 0.014 µM.

Take `Clc1ccc(-c2n[nH]cc2-c2ccc3nccn3c2)cc1` [Example 45, 6-(3-(4-chlorophenyl)-1H-pyrazol-4-yl)imidazo[1,2-a]pyridine]: the IC50 in assay [1] is 4.23 µM; in assay [2], 0.112 µM.

For `CCc1c(-c2ccc3ncc(C(N)=O)n3c2)c(-c2cccc(C)n2)nn1C` [Example 127, 6-(5-ethyl-1-methyl-3-(6-methylpyridin-2-yl)-1H-pyrazol-4-yl)imidazo[1,2-a]pyridine-3-carboxamide], the 50% inhibitory concentration (IC50) in assay [1] came out at 0.128 µM; in assay [2] it was 0.001 µM.

Turning to `NC(=O)c1cnc2ccc(-c3c[nH]nc3-c3ccc(F)cc3)nn12` [Example 14, 6-(3-(4-fluorophenyl)-1H-pyrazol-4-yl)imidazo[1,2-b]pyridazine-3-carboxamide], the IC50 worked out at 0.885 µM in assay [1] and 0.004 µM in assay [2].

As to `OCc1[nH]nc(-c2ccc(F)cc2)c1-c1ccc2nccn2c1` [Example 134, (3-(4-fluorophenyl)-4-(imidazo[1,2-a]pyridin-6-yl)-1H-pyrazol-5-yl)methanol], the IC50 turned out to be 13.1 µM in assay [1] and 0.027 µM in assay [2].

Regarding `Cc1cccc(-c2nn(C)cc2-c2ccc3ncc(C(N)=O)n3c2)n1` [Example 24, 6-(1-methyl-3-(6-methylpyridin-2-yl)-1H-pyrazol-4-yl)imidazo[1,2-a]pyridine-3-carboxamide], the values for the concentration for half-maximal inhibition (IC50) in assay [1] and in assay [2] were 0.627 µM and 0.001 µM, respectively.

Turning to `Cc1cccc(-c2n[nH]c(C(C)C)c2-c2ccc3ncc(C(N)=O)n3c2)n1` [Example 115, 6-(5-isopropyl-3-(6-methylpyridin-2-yl)-1H-pyrazol-4-yl)imidazo[1,2-a]pyridine-3-carboxamide], the IC50 in assay [1] worked out at 0.009 µM; in assay [2], 0.001 µM.

Take `Cc1cccc(-c2n[nH]c(C(C)C)c2-c2ccc3ncc(C#N)n3c2)n1` [Example 114, 6-(5-isopropyl-3-(6-methylpyridin-2-yl)-1H-pyrazol-4-yl) imidazo [1,2-a]pyridine-3-carbonitrile]: the IC50 in assay [1] was determined as 0.761 µM; in assay [2] it was 0.001 µM.

For `Fc1ccc(-c2n[nH]cc2-c2ccc3nccn3n2)cc1` [Example 55, 6-(3-(4-fluorophenyl)-1H-pyrazol-4-yl)imidazo[1,2-b]pyridazine], the concentration for half-maximal inhibition (IC50) in assay [1] turned out to be 4.93 µM; in assay [2], 0.006 µM.

As to `Cc1nc(-c2nn(C)cc2-c2ccc3ncc(C#N)n3c2)ccc1F` [Example 11, 6-(3-(5-fluoro-6-methylpyridin-2-yl)-1-methyl-1H-pyrazol-4-yl)imidazo[1,2-a]pyridine-3-carbonitrile], the concentration for half-maximal inhibition (IC50) came out at 5.42 µM in assay [1] and 0.001 µM in assay [2].

As for `CC(C)c1c(-c2ccc3ncc(C(N)=O)n3c2)c(-c2ccc(F)cc2)nn1C` [Example 72], the figures for the 50% inhibitory concentration (IC50) in assay [1] and in assay [2] were 0.963 µM and 0.002 µM, respectively.

On to `NC(=O)c1cnc2ccc(-c3c(-c4ccc(F)cc4)n[nH]c3C(F)(F)F)cn12` [Example 106, 6-(3-(4-fluorophenyl)-5-(trifluoromethyl)-1H-pyrazol-4-yl)imidazo[1,2-a]pyridine-3-carboxamide], for which the 50% inhibitory concentration (IC50) in assay [1] worked out at 6.66 µM; in assay [2] it was 0.001 µM.

Take `Fc1ccc(-c2n[nH]cc2-c2ccc3nccn3n2)cc1Cl` [Example 39, 6-(3-(3-chloro-4-fluorophenyl)-1H-pyrazol-4-yl)imidazo[1,2-b]pyridazine, TFA]: the half-maximal inhibitory concentration (IC50) in assay [1] came to 1.65 µM; in assay [2] it was 0.004 µM.

In the case of `Cc1cccc(-c2n[nH]c(C(C)C)c2-c2ccc3nccn3c2)n1` [Example 118, 6-(5-isopropyl-3-(6-methylpyridin-2-yl)-1H-pyrazol-4-yl)imidazo[1,2-a]pyridine], the values for the IC50 in assay [1] and in assay [2] were 2.69 µM and 0.001 µM, respectively.

Consider `CC(C)c1[nH]nc(-c2ccc(F)cc2)c1-c1ccc2[nH]ncc2c1` [Example 70, 5-(3-(4-fluorophenyl)-5-isopropyl-1H-pyrazol-4-yl)-1H-indazole], for which the values for the IC50 in assay [1] and in assay [2] were 6.1 µM and 0.001 µM, respectively.

Take `N#Cc1cnc2ccc(-c3c[nH]nc3-c3ccc(F)cc3)nn12` [Example 13, 6-(3-(4-fluorophenyl)-1H-pyrazol-4-yl)imidazo [1,2-b]pyridazine-3-carbonitrile]: the concentration for half-maximal inhibition (IC50) in assay [1] turned out to be 0.101 µM; in assay [2] it was 0.007 µM.

For the compound `O=C(NC1CC1)c1cnc2ccc(-c3c(-c4ccc(F)cc4)n[nH]c3C3CC3)cn12` [Example 92, N-cyclopropyl-6-(5-cyclopropyl-3-(4-fluorophenyl)-1H-pyrazol-4-yl)imidazo[1,2-a]pyridine-3-carboxamide], the figures for the 50% inhibitory concentration (IC50) in assay [1] and in assay [2] were 2.65 µM and 0.001 µM, respectively.

In the case of `Cc1cccc(-c2nn(C)cc2-c2ccc3ncc(C#N)n3n2)n1` [Example 25, 6-(1-methyl-3-(6-methylpyridin-2-yl)-1H-pyrazol-4-yl)imidazo[1,2-b]pyridazine-3-carbonitrile], the concentration for half-maximal inhibition (IC50) in assay [1] was 9.74 µM; in assay [2] it was 0.003 µM.

For `Cn1nc(-c2ccc(F)cc2)c(-c2ccc3ncc(C(N)=O)n3c2)c1C1CC1` [Example 94, 6-(5-cyclopropyl-3-(4-fluorophenyl)-1-methyl-1H-pyrazol-4-yl)imidazo[1,2-a]pyridine-3-carboxamide], the IC50 in assay [1] was found to be 0.806 µM; in assay [2], 0.001 µM.

For `CC(C)(C)Nc1cnc2ccc(-c3c[nH]nc3-c3ccc(F)cc3)cn12` [Example 15, N-(tert-butyl)-6-(3-(4-fluorophenyl)-1H-pyrazol-4-yl)imidazo[1,2-a]pyridin-3-amine], the results for the IC50 in assay [1] and in assay [2] were 12.7 µM and 0.502 µM, respectively.

With `Cc1cc(-c2n[nH]cc2-c2ccc3ncc(C#N)n3c2)ccc1F` [Example 49, 6-(3-(4-fluoro-3-methylphenyl)-1H-pyrazol-4-yl)imidazo[1,2-a]pyridine-3-carbonitrile], the IC50 in assay [1] worked out at 0.104 µM; in assay [2], 0.001 µM.

Regarding `Fc1ccc(-c2n[nH]c(C3CC3)c2-c2ccc3nccn3c2)cc1` [Example 86, 6-(5-cyclopropyl-3-(4-fluorophenyl)-1H-pyrazol-4-yl)imidazo [1,2-a]pyridine], the 50% inhibitory concentration (IC50) in assay [1] worked out at 14.6 µM; in assay [2], 0.004 µM.

`Fc1ccc(-c2n[nH]cc2-c2ccc3nccn3c2)cc1Cl` [Example 40, 6-(3-(3-chloro-4-fluorophenyl)-1H-pyrazol-4-yl)imidazo[1,2-a]pyridine, TFA]: the IC50 worked out at 4.97 µM in assay [1] and 0.003 µM in assay [2].

`Cc1[nH]nc(-c2cccc(F)n2)c1-c1ccc2ncc(C#N)n2c1` [Example 66, 6-(3-(6-fluoropyridin-2-yl)-5-methyl-1H-pyrazol-4-yl)imidazo [1,2-a]pyridine-3-carbonitrile]: the concentration for half-maximal inhibition (IC50) in assay [1] came to 0.277 µM; in assay [2] it was 0.001 µM.

Turning to `Cc1cc(-c2n[nH]c(C(C)C)c2-c2ccc3ncc(C(N)=O)n3c2)ccc1F` [Example 79, 6-(3-(4-fluoro-3-methylphenyl)-5-isopropyl-1H-pyrazol-4-yl)imidazo[1,2-a]pyridine-3-carboxamide], the IC50 is 0.136 µM in assay [1] and 0.001 µM in assay [2].

Take `Fc1ccc(-c2n[nH]cc2-c2ccc3ncc(F)n3c2)cc1` [Example 56, 3-fluoro-6-(3-(4-fluorophenyl)-1H-pyrazol-4-yl)imidazo[1,2-a]pyridine]: the IC50 is 0.533 µM in assay [1] and 0.007 µM in assay [2].

As to `Cc1cccc(-c2nn(C)c(C(C)C)c2-c2ccc3ncc(C#N)n3c2)n1` [Example 116, 6-(5-isopropyl-1-methyl-3-(6-methylpyridin-2-yl)-1H-pyrazol-4-yl)imidazo[1,2-a]pyridine-3-carbonitrile], the half-maximal inhibitory concentration (IC50) in assay [1] is 5.77 µM; in assay [2], 0.001 µM.
